#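 Tested at 5 concentrations; 48 h exposure; 96-well plates; endpoints linearly interpolated, else capped at highest concentration. At the TGI there is no net growth.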
# Columns and labels:
# Experiment in all cases: inhibition of tumour cell growth, NCI panel, 48 h
# CCRF-CEM leukemia = test system: CCRF-CEM leukemia
# SNB-19 CNS = test system: SNB-19 CNS
# NCI-H226 lung = test system: NCI-H226 lung
# SK-MEL-5 melanoma = test system: SK-MEL-5 melanoma
# OVCAR-5 ovarian = test system: OVCAR-5 ovarian
# A549 NSCLC = test system: A549 NSCLC
# MOLT-4 leukemia = test system: MOLT-4 leukemia
# HT29 colon = test system: HT29 colon
# K-562 leukemia = test system: K-562 leukemia
# SNB-78 CNS = test system: SNB-78 CNS
# NCI-H23 lung = test system: NCI-H23 lung
# KM20L2 colon = test system: KM20L2 colon
# HL-60(TB) leukemia = test system: HL-60(TB) leukemia
# XF 498 CNS = test system: XF 498 CNS
# RXF 393 renal = test system: RXF 393 renal
# HOP-92 NSCLC = test system: HOP-92 NSCLC
# HCT-15 colon = test system: HCT-15 colon
# SF-539 CNS = test system: SF-539 CNS
# NCI-H460 lung = test system: NCI-H460 lung
# SN12C renal = test system: SN12C renal
# CAKI-1 renal = test system: CAKI-1 renal
# SF-268 CNS = test system: SF-268 CNS
# M14 melanoma = test system: M14 melanoma
# OVCAR-4 ovarian = test system: OVCAR-4 ovarian
# DMS 114 small cell lung = test system: DMS 114 small cell lung
# OVCAR-3 ovarian = test system: OVCAR-3 ovarian
# LXFL 529 NSCLC = test system: LXFL 529 NSCLC
# KM12 colon = test system: KM12 colon
# M19-MEL melanoma = test system: M19-MEL melanoma
# IGROV1 ovarian = test system: IGROV1 ovarian
# SK-OV-3 ovarian = test system: SK-OV-3 ovarian
# TK-10 renal = test system: TK-10 renal
# UACC-62 melanoma = test system: UACC-62 melanoma
# COLO 205 colon = test system: COLO 205 colon
# SF-295 CNS = test system: SF-295 CNS
# SR leukemia = test system: SR leukemia
# NCI-H522 lung = test system: NCI-H522 lung
# RXF-631 renal = test system: RXF-631 renal
# A498 renal = test system: A498 renal
# RPMI-8226 leukemia = test system: RPMI-8226 leukemia
# MALME-3M melanoma = test system: MALME-3M melanoma
# SW-620 colon = test system: SW-620 colon
# SNB-75 CNS = test system: SNB-75 CNS
# HOP-62 NSCLC = test system: HOP-62 NSCLC
# LOX IMVI melanoma = test system: LOX IMVI melanoma
# HCT-116 colon = test system: HCT-116 colon
# DLD-1 colon = test system: DLD-1 colon
# UACC-257 melanoma = test system: UACC-257 melanoma
# UO-31 renal = test system: UO-31 renal
# DMS 273 small cell lung = test system: DMS 273 small cell lung
# U251 CNS = test system: U251 CNS
# EKVX NSCLC = test system: EKVX NSCLC
# HOP-18 NSCLC = test system: HOP-18 NSCLC
# HCC-2998 colon = test system: HCC-2998 colon
# OVCAR-8 ovarian = test system: OVCAR-8 ovarian
# SK-MEL-28 melanoma = test system: SK-MEL-28 melanoma
# 786-0 renal = test system: 786-0 renal
# ACHN renal = test system: ACHN renal
# SK-MEL-2 melanoma = test system: SK-MEL-2 melanoma
compound,measurement,setting,value
O=c1cc2cc(O)[nH]c(=O)c2c(O)[nH]1,TGI,CCRF-CEM leukemia,> 100 µM
same,TGI,SNB-19 CNS,> 100 µM
same,TGI,NCI-H226 lung,> 100 µM
same,TGI,SK-MEL-5 melanoma,> 100 µM
same,TGI,OVCAR-5 ovarian,> 100 µM
same,TGI,A549 NSCLC,> 100 µM
same,TGI,MOLT-4 leukemia,> 100 µM
same,TGI,HT29 colon,> 100 µM
same,TGI,K-562 leukemia,> 100 µM
same,TGI,SNB-78 CNS,> 100 µM
same,TGI,NCI-H23 lung,> 100 µM
same,TGI,KM20L2 colon,> 100 µM
same,TGI,HL-60(TB) leukemia,> 100 µM
same,TGI,XF 498 CNS,> 100 µM
same,TGI,RXF 393 renal,> 100 µM
same,TGI,HOP-92 NSCLC,> 100 µM
same,TGI,HCT-15 colon,> 100 µM
same,TGI,SF-539 CNS,> 100 µM
same,TGI,NCI-H460 lung,> 100 µM
same,TGI,SN12C renal,> 100 µM
same,TGI,CAKI-1 renal,> 100 µM
same,TGI,SF-268 CNS,> 100 µM
same,TGI,M14 melanoma,> 100 µM
same,TGI,OVCAR-4 ovarian,> 100 µM
same,TGI,DMS 114 small cell lung,> 100 µM
same,TGI,OVCAR-3 ovarian,> 100 µM
same,TGI,LXFL 529 NSCLC,> 100 µM
same,TGI,KM12 colon,> 100 µM
same,TGI,M19-MEL melanoma,> 100 µM
same,TGI,IGROV1 ovarian,> 100 µM
same,TGI,SK-OV-3 ovarian,> 100 µM
same,TGI,TK-10 renal,> 100 µM
same,TGI,UACC-62 melanoma,> 100 µM
same,TGI,COLO 205 colon,> 100 µM
same,TGI,SF-295 CNS,> 100 µM
same,TGI,SR leukemia,> 100 µM
same,TGI,NCI-H522 lung,> 100 µM
same,TGI,RXF-631 renal,> 100 µM
same,TGI,A498 renal,> 100 µM
same,TGI,RPMI-8226 leukemia,> 100 µM
same,TGI,MALME-3M melanoma,> 100 µM
same,TGI,SW-620 colon,> 100 µM
same,TGI,SNB-75 CNS,> 100 µM
same,TGI,HOP-62 NSCLC,> 100 µM
same,TGI,LOX IMVI melanoma,> 100 µM
same,TGI,HCT-116 colon,> 100 µM
same,TGI,DLD-1 colon,> 100 µM
same,TGI,UACC-257 melanoma,> 100 µM
same,TGI,UO-31 renal,> 100 µM
same,TGI,DMS 273 small cell lung,> 100 µM
same,TGI,U251 CNS,> 100 µM
CC1=N/C(=C\c2ccc([N+](=O)[O-])cc2)C(=O)O1,TGI,SNB-19 CNS,> 100 µM
same,TGI,SK-MEL-5 melanoma,> 100 µM
same,TGI,EKVX NSCLC,> 100 µM
same,TGI,OVCAR-5 ovarian,> 100 µM
same,TGI,A549 NSCLC,> 100 µM
same,TGI,HOP-18 NSCLC,> 100 µM
same,TGI,MOLT-4 leukemia,> 100 µM
same,TGI,HT29 colon,> 100 µM
same,TGI,K-562 leukemia,> 100 µM
same,TGI,SNB-78 CNS,> 100 µM
same,TGI,NCI-H23 lung,> 100 µM
same,TGI,HCC-2998 colon,> 100 µM
same,TGI,KM20L2 colon,> 100 µM
same,TGI,HL-60(TB) leukemia,> 100 µM
same,TGI,RXF 393 renal,> 100 µM
same,TGI,HOP-92 NSCLC,> 100 µM
same,TGI,OVCAR-8 ovarian,> 100 µM
same,TGI,HCT-15 colon,> 100 µM
same,TGI,SF-539 CNS,> 100 µM
same,TGI,NCI-H460 lung,> 100 µM
same,TGI,SN12C renal,> 100 µM
same,TGI,SK-MEL-28 melanoma,> 100 µM
same,TGI,SF-268 CNS,> 100 µM
same,TGI,M14 melanoma,> 100 µM
same,TGI,OVCAR-4 ovarian,> 100 µM
same,TGI,DMS 114 small cell lung,> 100 µM
same,TGI,OVCAR-3 ovarian,> 100 µM
same,TGI,786-0 renal,> 100 µM
same,TGI,LXFL 529 NSCLC,> 100 µM
same,TGI,KM12 colon,> 100 µM
same,TGI,M19-MEL melanoma,> 100 µM
same,TGI,IGROV1 ovarian,> 100 µM
same,TGI,TK-10 renal,> 100 µM
same,TGI,UACC-62 melanoma,> 100 µM
same,TGI,COLO 205 colon,> 100 µM
same,TGI,ACHN renal,> 100 µM
same,TGI,SF-295 CNS,> 100 µM
same,TGI,NCI-H522 lung,> 100 µM
same,TGI,RXF-631 renal,> 100 µM
same,TGI,A498 renal,> 100 µM
same,TGI,RPMI-8226 leukemia,> 100 µM
same,TGI,MALME-3M melanoma,> 100 µM
same,TGI,SW-620 colon,> 100 µM
same,TGI,HOP-62 NSCLC,> 100 µM
same,TGI,HCT-116 colon,> 100 µM
same,TGI,DLD-1 colon,> 100 µM
same,TGI,UACC-257 melanoma,> 100 µM
same,TGI,UO-31 renal,> 100 µM
same,TGI,U251 CNS,> 100 µM
same,TGI,SK-MEL-2 melanoma,> 100 µM
C=CCNC(=S)OCCCCCCCCCC,TGI,CCRF-CEM leukemia,37.4 µM
same,TGI,SNB-19 CNS,83.9 µM
same,TGI,SK-MEL-5 melanoma,30.5 µM
same,TGI,EKVX NSCLC,39.6 µM
same,TGI,OVCAR-5 ovarian,21.8 µM
same,TGI,A549 NSCLC,76.2 µM
same,TGI,HOP-18 NSCLC,51.8 µM
same,TGI,MOLT-4 leukemia,34.6 µM
same,TGI,HT29 colon,32.5 µM
same,TGI,K-562 leukemia,29.6 µM
same,TGI,SNB-78 CNS,36.7 µM
same,TGI,NCI-H23 lung,37.8 µM
same,TGI,HCC-2998 colon,31.8 µM
same,TGI,KM20L2 colon,33.2 µM
same,TGI,HL-60(TB) leukemia,53.5 µM
same,TGI,XF 498 CNS,29.7 µM
same,TGI,RXF 393 renal,29.1 µM
same,TGI,OVCAR-8 ovarian,31.2 µM
same,TGI,HCT-15 colon,29.4 µM
same,TGI,SF-539 CNS,34 µM
same,TGI,NCI-H460 lung,33 µM
same,TGI,SN12C renal,31.7 µM
same,TGI,SK-MEL-28 melanoma,44.9 µM
same,TGI,CAKI-1 renal,34 µM
same,TGI,SF-268 CNS,33.6 µM
same,TGI,M14 melanoma,32.7 µM
same,TGI,OVCAR-4 ovarian,30.5 µM
same,TGI,DMS 114 small cell lung,32.1 µM
same,TGI,786-0 renal,32.6 µM
same,TGI,LXFL 529 NSCLC,28.5 µM
same,TGI,KM12 colon,26.6 µM
same,TGI,M19-MEL melanoma,32.5 µM
same,TGI,IGROV1 ovarian,35.7 µM
same,TGI,SK-OV-3 ovarian,43.3 µM
same,TGI,TK-10 renal,24.1 µM
same,TGI,UACC-62 melanoma,30.2 µM
same,TGI,ACHN renal,32.7 µM
same,TGI,SF-295 CNS,34.5 µM
same,TGI,SR leukemia,78.3 µM
same,TGI,A498 renal,33.3 µM
same,TGI,RPMI-8226 leukemia,38.9 µM
same,TGI,MALME-3M melanoma,33.8 µM
same,TGI,SW-620 colon,32.7 µM
same,TGI,SNB-75 CNS,49.8 µM
same,TGI,HOP-62 NSCLC,36.3 µM
same,TGI,LOX IMVI melanoma,26.9 µM
same,TGI,HCT-116 colon,30.6 µM
same,TGI,DLD-1 colon,30.7 µM
same,TGI,UACC-257 melanoma,34.6 µM
same,TGI,UO-31 renal,24.8 µM
same,TGI,DMS 273 small cell lung,37.3 µM
same,TGI,U251 CNS,30.8 µM
same,TGI,SK-MEL-2 melanoma,24.8 µM
COc1c(Cl)c(Cl)c(OC)c2c1C(=O)C=CC2=O,TGI,CCRF-CEM leukemia,53.5 µM
same,TGI,SNB-19 CNS,> 100 µM
same,TGI,NCI-H226 lung,> 100 µM
same,TGI,SK-MEL-5 melanoma,> 100 µM
same,TGI,EKVX NSCLC,31.8 µM
same,TGI,OVCAR-5 ovarian,> 100 µM
same,TGI,A549 NSCLC,> 100 µM
same,TGI,HOP-18 NSCLC,> 100 µM
same,TGI,MOLT-4 leukemia,46.7 µM
same,TGI,HT29 colon,87.2 µM
same,TGI,K-562 leukemia,64.4 µM
same,TGI,SNB-78 CNS,26.7 µM
same,TGI,NCI-H23 lung,> 100 µM
same,TGI,HCC-2998 colon,> 100 µM
same,TGI,KM20L2 colon,> 100 µM
same,TGI,HL-60(TB) leukemia,5.09 µM
same,TGI,XF 498 CNS,31 µM
same,TGI,RXF 393 renal,30.9 µM
same,TGI,HOP-92 NSCLC,28.8 µM
same,TGI,OVCAR-8 ovarian,32.1 µM
same,TGI,HCT-15 colon,> 100 µM
same,TGI,SF-539 CNS,41.2 µM
same,TGI,NCI-H460 lung,> 100 µM
same,TGI,SN12C renal,62.2 µM
same,TGI,SK-MEL-28 melanoma,34.7 µM
same,TGI,CAKI-1 renal,59.1 µM
same,TGI,SF-268 CNS,30.6 µM
same,TGI,M14 melanoma,43.3 µM
same,TGI,OVCAR-4 ovarian,28.9 µM
same,TGI,DMS 114 small cell lung,29.7 µM
same,TGI,OVCAR-3 ovarian,31.6 µM
same,TGI,786-0 renal,31.3 µM
same,TGI,LXFL 529 NSCLC,29.3 µM
same,TGI,KM12 colon,32.2 µM
same,TGI,M19-MEL melanoma,32.3 µM
same,TGI,IGROV1 ovarian,56.9 µM
same,TGI,SK-OV-3 ovarian,> 100 µM
same,TGI,TK-10 renal,41.9 µM
same,TGI,UACC-62 melanoma,30.4 µM
same,TGI,COLO 205 colon,31.7 µM
same,TGI,ACHN renal,29.2 µM
same,TGI,SF-295 CNS,48.8 µM
same,TGI,SR leukemia,42.9 µM
same,TGI,NCI-H522 lung,31.7 µM
same,TGI,A498 renal,> 100 µM
same,TGI,RPMI-8226 leukemia,73.1 µM
same,TGI,MALME-3M melanoma,29.5 µM
same,TGI,SW-620 colon,31.2 µM
same,TGI,SNB-75 CNS,80 µM
same,TGI,LOX IMVI melanoma,30.2 µM
same,TGI,HCT-116 colon,31.6 µM
same,TGI,DLD-1 colon,29.5 µM
same,TGI,UACC-257 melanoma,35.4 µM
same,TGI,UO-31 renal,31.7 µM
same,TGI,DMS 273 small cell lung,31.5 µM
same,TGI,U251 CNS,40.4 µM
same,TGI,SK-MEL-2 melanoma,33.9 µM
